Results from patent US12049450B2, “Pyridyloxy-carboxylate derivative and preparation method therefor, herbicidal composition, and use” (Qingdao Kingagroot Chemical Compound Co., Ltd., priority 2018, dated 2024).

How the values were obtained:
Format in all cases: in vivo
Abutilon theophrasti = assay: Post-emergence test experiment (greenhouse pot, spray at 2-3 leaf stage); settings: 1000 g/ha; post-emergence spray at 2-3 leaf stage; assessed after 3 weeks; fresh weight inhibition rate
Method in brief: (§1)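 Activity graded levels 0-5 by fresh-weight inhibition (level 5 above 85%, level 0 below 5%), assessed 3 weeks after treatment. Plants grown in greenhouse pots were sprayed post-emergence at 2-3 leaves using acetone/tween-80 solutions with methyl oleate synergist (1.5 L/ha).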

Digitaria sanguinalis = assay: as above; settings: 1000 g/ha; post-emergence spray at 2-3 leaf stage; assessed after 3 weeks; fresh weight inhibition rate
Method in brief: as §1

Echinochloa crusgalli = assay: as above; settings: for Activity level (growth inhibition rate) Echinochloa crusgalli: 1000 g/ha, post-emergence spray at 2-3 leaf stage, assessed after 3 weeks, fresh weight inhibition rate
Method in brief: as §1

Galium spurium = assay: as above; settings: 1000 g/ha; post-emergence spray at 2-3 leaf stage; assessed after 3 weeks; fresh weight inhibition rate
Method in brief: as §1

Monochoria vaginalis = assay: as above; settings: 1000 g/ha; post-emergence spray at 2-3 leaf stage; assessed after 3 weeks; fresh weight inhibition rate
Method in brief: as §1

Soybean = assay: Spray drift test, application by unmanned gyroplane, soybean field at 10 meters; settings: 600 g/ha, gyroplane at 1 m, gentle breeze
Procedure: Broadleaf crops are very sensitive to hormonal herbicides, therefore crop injuries are more likely to occur in case of spray drifting. Tests were conducted in gentle breeze for the compounds of the present invention. The formulation of the compounds of the present invention was applied by DJI unmanned gyroplane with application height of 1 m and water volume of 20 kg/ha. The use rate was 600 g/ha. The active ingredient was dissolved by acetone and diluted to aqueous solution of Tween 80. There's a soybean field at 10 meters from the application area and the height of soybean plants were about 15 cm at the application time.

Cyperus iria = assay: Post-emergence test experiment (greenhouse pot, spray at 2-3 leaf stage); settings: post-emergence, 100 g/ha, after 3 weeks; resistant to ALS inhibitor herbicides
Method in brief: as §1

Indica rice = assay: as above; settings: post-emergence, 100 g/ha, after 3 weeks
Method in brief: as §1

Japonica rice = assay: as above; settings: post-emergence, 100 g/ha, after 3 weeks
Method in brief: as §1

| Structure (SMILES) | Activity level (growth inhibition rate) Abutilon theophrasti (Abutilon theophrasti) | Activity level (growth inhibition rate) Digitaria sanguinalis (Digitaria sanguinalis) | Activity level (growth inhibition rate) Echinochloa crusgalli (Echinochloa crusgalli) | Activity level (growth inhibition rate) Galium spurium (Galium spurium) | Activity level (growth inhibition rate) Monochoria Vaginalis (Monochoria vaginalis) | Soybean, injury level by spray drift (Soybean) | Cyperus iria, activity level (growth inhibition rate) (Cyperus iria) | Echinochloa crusgalli, activity level (growth inhibition rate) (Echinochloa crusgalli; post-emergence, 100 g/ha, after 3 weeks, resistant to ALS inhibitor herbicides) | Indica rice, activity level (growth inhibition rate) (Indica rice) | Japonica rice, activity level (growth inhibition rate) (Japonica rice) |
| --- | --- | --- | --- | --- | --- | --- | --- | --- | --- | --- |
| CC(Oc1nc(F)c(Cl)c(N)c1Cl)C(=O)SCc1ccc(-c2ccccc2)cc1 (racemic) [Compound 113] | 5 (Level 5: the growth inhibition rate is greater than 85%) | 5 (Level 5: the growth inhibition rate is greater than 85%) | 5 (Level 5: the growth inhibition rate is greater than 85%) | 5 (Level 5: the growth inhibition rate is greater than 85%) | 5 (Level 5: the growth inhibition rate is greater than 85%) | 0 (Level 0: the growth inhibition rate is less than 5%) | – | – | – | – |
| COc1cc(OC)nc(Oc2cccc(Oc3nc(OC)cc(OC)n3)c2C(=O)O)n1 [Bispyribac-sodium, reference compound] | – | – | – | – | – | – | 2 (Level 2: the growth inhibition rate is equal to or greater than 20% and less than 40%) | 1 (Level 1: the growth inhibition rate is equal to or greater than 5% and less than 20%) | 2 (Level 2: the growth inhibition rate is equal to or greater than 20% and less than 40%) | 4 (Level 4: the growth inhibition rate is equal to or greater than 60% and less than 85%) |
| CC(Oc1nc(F)c(F)c(N)c1F)C(=O)OCc1ccccc1 (stereo not shown) [Compound 1] | 5 (Level 5: the growth inhibition rate is greater than 85%) | 5 (Level 5: the growth inhibition rate is greater than 85%) | 5 (Level 5: the growth inhibition rate is greater than 85%) | 5 (Level 5: the growth inhibition rate is greater than 85%) | 5 (Level 5: the growth inhibition rate is greater than 85%) | 0 (Level 0: the growth inhibition rate is less than 5%) | – | – | – | – |
| CC(Oc1nc(Cl)c(Cl)c(N)c1Cl)C(=O)OCc1ccccc1 (stereo not shown) [Compound 2] | 5 (Level 5: the growth inhibition rate is greater than 85%) | 5 (Level 5: the growth inhibition rate is greater than 85%) | 5 (Level 5: the growth inhibition rate is greater than 85%) | 5 (Level 5: the growth inhibition rate is greater than 85%) | 5 (Level 5: the growth inhibition rate is greater than 85%) | 0 (Level 0: the growth inhibition rate is less than 5%) | – | – | – | – |
| CC(Oc1ncc(Cl)c(N)c1Cl)C(=O)OCc1ccccc1 (stereo not shown) [Compound 3] | 5 (Level 5: the growth inhibition rate is greater than 85%) | 5 (Level 5: the growth inhibition rate is greater than 85%) | 5 (Level 5: the growth inhibition rate is greater than 85%) | 5 (Level 5: the growth inhibition rate is greater than 85%) | 5 (Level 5: the growth inhibition rate is greater than 85%) | 0 (Level 0: the growth inhibition rate is less than 5%) | – | – | – | – |
| Nc1c(Cl)c(F)nc(OC(C(=O)OCc2ccccc2)C(F)(F)F)c1Cl (stereo not shown) [Compound 41] | 5 (Level 5: the growth inhibition rate is greater than 85%) | – | – | 5 (Level 5: the growth inhibition rate is greater than 85%) | 5 (Level 5: the growth inhibition rate is greater than 85%) | 0 (Level 0: the growth inhibition rate is less than 5%) | – | – | – | – |
| N#CC(Oc1nc(F)c(Cl)c(N)c1Cl)C(=O)OCc1ccccc1 (stereo not shown) [Compound 43] | 5 (Level 5: the growth inhibition rate is greater than 85%) | – | – | 5 (Level 5: the growth inhibition rate is greater than 85%) | 5 (Level 5: the growth inhibition rate is greater than 85%) | 0 (Level 0: the growth inhibition rate is less than 5%) | – | – | – | – |
| CN(C)CC(Oc1nc(F)c(Cl)c(N)c1Cl)C(=O)SCc1ccccc1 (stereo not shown) [Compound 46] | 5 (Level 5: the growth inhibition rate is greater than 85%) | – | – | 5 (Level 5: the growth inhibition rate is greater than 85%) | 5 (Level 5: the growth inhibition rate is greater than 85%) | 0 (Level 0: the growth inhibition rate is less than 5%) | – | – | – | – |
| COC(Oc1nc(F)c(Cl)c(N)c1Cl)C(=O)SCc1ccccc1 (stereo not shown) [Compound 50] | 5 (Level 5: the growth inhibition rate is greater than 85%) | – | – | 5 (Level 5: the growth inhibition rate is greater than 85%) | 5 (Level 5: the growth inhibition rate is greater than 85%) | 0 (Level 0: the growth inhibition rate is less than 5%) | – | – | – | – |
| Nc1c(Cl)c(F)nc(OC(Cc2ccccc2)C(=O)OCc2ccccc2)c1Cl (stereo not shown) [Compound 53] | 5 (Level 5: the growth inhibition rate is greater than 85%) | – | – | 5 (Level 5: the growth inhibition rate is greater than 85%) | 5 (Level 5: the growth inhibition rate is greater than 85%) | 0 (Level 0: the growth inhibition rate is less than 5%) | – | – | – | – |
| Nc1c(Cl)c(F)nc(OC(C(=O)OCc2ccccc2)c2cccs2)c1Cl (stereo not shown) [Compound 54] | 5 (Level 5: the growth inhibition rate is greater than 85%) | – | – | 5 (Level 5: the growth inhibition rate is greater than 85%) | 5 (Level 5: the growth inhibition rate is greater than 85%) | 0 (Level 0: the growth inhibition rate is less than 5%) | – | – | – | – |
| CC(Oc1nc(F)c(Cl)c(N)c1Cl)C(=O)OCc1cc(C(F)(F)F)ccc1F (stereo not shown) [Compound 82] | 5 (Level 5: the growth inhibition rate is greater than 85%) | 5 (Level 5: the growth inhibition rate is greater than 85%) | 5 (Level 5: the growth inhibition rate is greater than 85%) | 5 (Level 5: the growth inhibition rate is greater than 85%) | 5 (Level 5: the growth inhibition rate is greater than 85%) | 0 (Level 0: the growth inhibition rate is less than 5%) | – | – | – | – |
| CC(Oc1nc(F)c(Cl)c(N)c1Cl)C(=O)OCc1c(F)ccc(F)c1F (stereo not shown) [Compound 83] | 5 (Level 5: the growth inhibition rate is greater than 85%) | 5 (Level 5: the growth inhibition rate is greater than 85%) | 5 (Level 5: the growth inhibition rate is greater than 85%) | 5 (Level 5: the growth inhibition rate is greater than 85%) | 5 (Level 5: the growth inhibition rate is greater than 85%) | 0 (Level 0: the growth inhibition rate is less than 5%) | – | – | – | – |
| CC(Oc1nc(F)c(Cl)c(NCc2ccco2)c1Cl)C(=O)OCc1ccccc1 (stereo not shown) [Compound 193] | 5 (Level 5: the growth inhibition rate is greater than 85%) | 5 (Level 5: the growth inhibition rate is greater than 85%) | 5 (Level 5: the growth inhibition rate is greater than 85%) | 5 (Level 5: the growth inhibition rate is greater than 85%) | 5 (Level 5: the growth inhibition rate is greater than 85%) | 0 (Level 0: the growth inhibition rate is less than 5%) | – | – | – | – |
